Experimental data reported in US20230416307A1, “[…] PEPTIDES FOR ENHANCING VIRAL PRODUCTION” (Synvivia, Inc., priority 2022, published 2023).
Ends that are not written are not given here.

Tests used:
AAV2-GFP = assay: Transduction efficiency (TU:VG ratio) of AAV2-GFP packaged in cells expressing a CP; type: cell-based, adeno-associated virus; conditions: for transduction efficiency of AAV2-GFP produced in the presence of CP: FIG. 23, CP plasmid 0.3 ng to 100 ng, versus control without CP
Excerpt: AAV2-GFP were harvested and assayed for biological and physical titer as described in FIG. 20
FIG. 24. […] This figure depicts the raw flow cytometry data used to determine the biological titer of AAV samples. This is an example of the data that was used to determine the biological titers in FIG. 23. The X-axis of each graph represents the forward light scattering (FSC) from flow cytometry. The Y-axis represents the GFP intensity of each cell. A 1000-fold dilution of AAV2-GFP particles produced either in the presence (A) or absence (B) of cyclic peptide were used to transduce HEK293 cells. A 1000-fold dilution of the preparation was used (e.g., without physical titer normalization) to ensure a direct, batch-to-batch comparison of the impact of cyclic peptide on viral packaging performance.
As used herein, the term “transduction efficiency” refers to the effectiveness (efficiency) of viral particles in delivering their genetic payload to the target cells. This efficiency may be represented by the transducing units to vector genomes ratio (TU:VG). Viral formulations with enhanced transduction efficiency can achieve greater numbers of DNA delivery events for the same number of DNA-containing viral particles. […] Enhanced transduction efficiency may be achieved by optimizing the cellular environment for viral production, leading to viral particles with improved capsid structure, viral particle biochemistry, or viral particle assembly. Increasing transduction efficiency refers to improvements in the TU:VG ratio, which encompasses both infectivity and biological titer.
• 1. A 100-mm cell culture dish was reseeded with 4.0×10^6 Hek293T cells in high glucose DMEM culture medium supplemented with 10% FBS. • 2. […] A jetOPTIMUS DNA transfection reagent i used during the transfection protocol (from Polyplus). • 3. 12-16 hours after transfection, media was replaced with low glucose DMEM culture medium supplemented with 1% FBS, 1×Glutamax, 10 mM HEPES, and 0.075% sodium bicarbonate. • 4. Cells and media were harvested 4 days after transfection and frozen in 1 mL aliquots. • 5. Frozen aliquots were thawed and lysed using AAVMax Lysis Reagent (Life Technologies, USA, A50520). 100 uL of AAVMax Lysis buffer was added to 900 uL of cell and media. Mixture was incubated for 2 hours with rotating. Debris was pelleted at 5,000xg for 15 minutes. AAV containing supernatant was collected. • 6. The physical and biological titers of the harvested AAV samples were determined by qPCR and biological viral titer measurement as described in Example 1.
Full, but non-functional viral particles represent a major manufacturing challenge for AAV gene therapies. At present, there is no process capable of purifying the functional viral particles from the full, but non-functional fraction.

Lentivirus [1] = assay: Lentivirus particle (physical) titer by Lenti-X GoStix Plus after packaging with a CP generator plasmid; type: cell-based; conditions: FIG. 25; generator plasmid 0.5, 5, 50 ng; normalised to six no-CP controls
Method: (§1) Cyclic peptides are used herein to improve viral titer and transduction efficiency during lentiviral production. Lentivirus was produced using Takara Bio lentivirus packaging kit either with (left panels) or without (right panels; bars labeled CTRL) a cyclic peptide generator plasmid. The cyclic peptides produced by different amounts (e.g., 0.5 ng, 5 ng and 50 ng) of corresponding generator plasmids were CSSLT (SEQ ID NO: 37), CGSTKS (SEQ ID NO: 43), CKYEE (SEQ ID NO: 40), CPYTD (SEQ ID NO: 44), CPLQVP (SEQ ID NO: 45). 5 ng plasmid experiment for CGSTKS (SEQ ID NO: 43) failed and is not shown. The virus was collected, and particle titers were enumerated using Takara Bio Lenti-X GoStix Plus quantitative lentiviral titer test. The biological titer was determined by transducing fresh HEK293 cells with the various lentiviral preparations (e.g., packaged with or without a cyclic peptide). The fold difference in particle titer and transduction unit titer is calculated by normalizing to the average of six control lentiviral transductions from packaging runs without cyclic peptide. The control (CTRL) conditions illustrate negligible noise.
This example illustrates methodologies for Cyclic peptide-enhanced lentiviral vector production. • 1) Cells were seeded at 4-5×10^6 cells per 10-cm plate, 24 hours prior to transfection, to achieve 80-90% confluence at the time of transfection. • 2) 7.0 μg of lentiviral vector plasmid DNA was diluted in sterile water to a volume of 600 μl along with a cyclic peptide generator that expresses a cyclic peptide. • 3) Titration of cyclic peptide plasmid DNA concentrations, from 0.5 ng to 50 ng, was used in this Example. However, the amount of required plasmid DNA depends on many factors, including the specific cyclic peptide being expressed, the cyclic peptide generator (e.g. more efficient cyclic peptide generators may need less DNA), and promoter strength (the pCMV promoter driving strong expression is used in this Example). • 4) Between 4-8 control conditions (depending on number of experimental conditions) were also prepared that are identical to the above, except that no cyclic peptide plasmid was added. • 5) This DNA was added to a tube of Lenti-X Packaging Single Shots and vortexed to mix. • 6) The mixture was incubated for 10 minutes at room temperature to allow the formation of nanoparticle complexes, then briefly centrifuged. • 7) The entire 600 μl of nanoparticle complex solution was added dropwise to the packaging cells, which were then rocked gently to mix. • 8) Lentiviral packaging. […] They were centrifuged or filtered to remove cellular debris, using a filter of cellulose acetate or polysulfone, not nitrocellulose. • 10) Virus production was verified and can be quantified using Lenti-X GoStix™ Plus or any other standard methodology. Then, the virus can be used to transduce target cells or stored at −80° C. • 11) Next, for each viral production condition (e.g., different cyclic peptide packaging conditions, CP dosages, and controls), a three order of magnitude serial dilution at 10-fold dilution steps was performed. • 12) All viral samples were then transduced, harboring a GFP transgene, into fresh HEK293 cells. • 13) After 3 days, the transduced cells were collected, and analyzed them by flow cytometry (see FIG. 26). • 14) Finally, the biological titer (flow cytometry) and physical titer (GoStix) were normalized to the no-CP control to determine the fold improvements in both viral titer and infectiousness. […]

Lentivirus [2] = assay: Lentivirus biological titer (flow cytometry of transduced HEK293 cells) after packaging with a CP generator plasmid; type: cell-based; conditions: for lentiviral biological (transduction unit) titer, fold difference to control: FIG. 25, generator plasmid 0.5, 5, 50 ng, HEK293 cells
Method: as §1
FIG. 26. Exemplary representative flow cytometry raw data illustrating that when cyclic peptide CGSTKS (SEQ ID NO: 43) is present during lentiviral production, the biological titer increases by over 8-fold compared to when the cyclic peptide is absent. This figure depicts the raw flow cytometry data used to determine the biological titer of lentiviral samples. This is an example of the data that was used to determine the lentiviral biological titers in FIG. 25. The X-axis of each graph represents the forward light scattering (FSC) from flow cytometry. The Y-axis represents the GFP intensity of each cell. A 100-fold dilution of Lentivirus with a GFP payload produced either in the presence (A) or absence (B) of cyclic peptide were used to transduce HEK293 cells. A 100-fold dilution of the preparation was used (e.g., without physical titer normalization) to ensure a direct, batch-to-batch comparison of the impact of the cyclic peptide on viral packaging performance. • Part A—Flow cytometry raw data (with minor forward and side scatter gating to remove irrelevant particles) of HEK293 transduced with a lentiviral preparation produced in the presence of cyclic peptide CGSTKS (SEQ ID NO: 43) generated from a plasmid constructed transduced into packaging cells at 0.5 ng. • Part B—Flow cytometry raw data (with minor forward and side scatter gating to remove irrelevant particles) of HEK293 transduced with a lentiviral preparation produced without cyclic peptide.
This example illustrates methodologies for Cyclic peptide-enhanced lentiviral vector production. • 1) Cells were seeded at 4-5×10^6 cells per 10-cm plate, 24 hours prior to transfection, to achieve 80-90% confluence at the time of transfection. • 2) 7.0 μg of lentiviral vector plasmid DNA was diluted in sterile water to a volume of 600 μl along with a cyclic peptide generator that expresses a cyclic peptide. • 3) Titration of cyclic peptide plasmid DNA concentrations, from 0.5 ng to 50 ng, was used in this Example. […]

## CKYEE: engineered cyclic peptide, SEQ ID NO: 40 (also: cyclic, closure not given here)
AAV2-GFP
  transduction efficiency of AAV2-GFP produced in the presence of CP: improvements in transduction efficiency
Lentivirus [1]
  lentiviral physical (particle) titer, fold difference to control: unexpected degree of improvement
Lentivirus [2]
  lentiviral biological (transduction unit) titer, fold difference to control: unexpected degree of improvement

## CTHKVS: engineered cyclic peptide, SEQ ID NO: 38 (also: cyclic, closure not given here)
AAV2-GFP
  transduction efficiency of AAV2-GFP produced in the presence of CP: improvements in transduction efficiency

## CSSLT: engineered cyclic peptide, SEQ ID NO: 37 (also: cyclic, closure not given here)
AAV2-GFP
  transduction efficiency of AAV2-GFP produced in the presence of CP: improvements in transduction efficiency
Lentivirus [1]
  lentiviral physical (particle) titer, fold difference to control: unexpected degree of improvement
Lentivirus [2]
  lentiviral biological (transduction unit) titer, fold difference to control: unexpected degree of improvement

## CCRPH: engineered cyclic peptide, printed as SEQ ID NO: 37
AAV2-GFP
  transduction efficiency of AAV2-GFP produced in the presence of CP: improvements in transduction efficiency

## CRVSY: engineered cyclic peptide, SEQ ID NO: 41 (also: cyclic, closure not given here)
AAV2-GFP
  transduction efficiency of AAV2-GFP produced in the presence of CP: improvements in transduction efficiency

## CPYTD: engineered cyclic peptide, SEQ ID NO: 44 (also: cyclic, closure not given here)
Lentivirus [1]
  lentiviral physical (particle) titer, fold difference to control: unexpected degree of improvement
Lentivirus [2]
  lentiviral biological (transduction unit) titer, fold difference to control: unexpected degree of improvement

## CGSTKS: engineered cyclic peptide, SEQ ID NO: 43 (also: cyclic, closure not given here)
Lentivirus [1]
  lentiviral physical (particle) titer, fold difference to control: unexpected degree of improvement
Lentivirus [2]
  lentiviral biological (transduction unit) titer, fold difference to control: unexpected degree of improvement
Lentivirus [2]; FIG. 26, generator plasmid at 0.5 ng, 100-fold dilution on HEK293 cells, versus no CP
  increase of lentiviral biological titer: over 8 fold

## CPLQVP: engineered cyclic peptide, SEQ ID NO: 45 (also: cyclic, closure not given here)
Lentivirus [1]
  lentiviral physical (particle) titer, fold difference to control: unexpected degree of improvement
Lentivirus [2]
  lentiviral biological (transduction unit) titer, fold difference to control: unexpected degree of improvement

## CQVFQL: engineered cyclic peptide, SEQ ID NO: 42 (also: cyclic, closure not given here)
AAV2-GFP
  transduction efficiency of AAV2-GFP produced in the presence of CP: improvements in transduction efficiency

## CYNHAR: engineered cyclic peptide, SEQ ID NO: 35, corresponds to generator plasmid T2851-8 (cyclic; Cyclic peptide that was found to increase or decrease AAV viral titer in a dose-responsive manner.)
AAV2-GFP; FIG. 21 legend, data not shown
  increased transduction efficiency (TU:VG ratio): ~2.4 ×
